Measurements taken from patent US6214615A (The United States of America as represented by the …, priority 1996, dated 2001).

Experiments:
[1] = target: T1, human dopamine D2 receptor (Homo sapiens, UniProt P14416); conditions: 0.7 nM ^3 H-raclopride; transfected COS-7 cells
Description: Expression and Transfection. […] COS-7 cells were plated at a density of 1×10^6 cells/10 cm dish.
(§1) Radioligand binding. Cells were scraped 48-72 hours after transfection into 10 ml of PBS/10 cm dish and pelleted at 1000× g. Cells were resuspended in 10 mM Tris, 1 mM EDTA, 5 mM MgCl2 and homogenized with a polytron (Brinkman). A total particulate fraction was prepared by centrifugation at 45,000× g for 15 min. […] Reactions were initiated by addition of 0.4 ml of tissue in binding buffer to 0.1 ml of drugs. […] Reactions were terminated by filtering membranes through Whatman GFC filters using a cell harvester (Brandel). Data were analyzed by nonlinear regression on a VAX II computer using the program DATAPLOT (distributed by the National Technical Information Service).

[2] = target: T1, human dopamine D2 receptor; assay: Saturation radioligand binding to membranes of transfected COS-7 cells; design: rescreened with the S1 probe alone to identify those most likely to be full length; expressed in transfected cells; host or cells: COS-7 cells (transient, 16A-pCD-PS DNA)
Description: COS-7 cells were plated at a density of 1×10^6 cells/10 cm dish. One to two days after plating, cells were transfected with 16A-pCD-PS DNA using a modification of the calcium phosphate precipitation procedure.
as §1

T1 sequence (P14416 1-414 isoform P14416-2): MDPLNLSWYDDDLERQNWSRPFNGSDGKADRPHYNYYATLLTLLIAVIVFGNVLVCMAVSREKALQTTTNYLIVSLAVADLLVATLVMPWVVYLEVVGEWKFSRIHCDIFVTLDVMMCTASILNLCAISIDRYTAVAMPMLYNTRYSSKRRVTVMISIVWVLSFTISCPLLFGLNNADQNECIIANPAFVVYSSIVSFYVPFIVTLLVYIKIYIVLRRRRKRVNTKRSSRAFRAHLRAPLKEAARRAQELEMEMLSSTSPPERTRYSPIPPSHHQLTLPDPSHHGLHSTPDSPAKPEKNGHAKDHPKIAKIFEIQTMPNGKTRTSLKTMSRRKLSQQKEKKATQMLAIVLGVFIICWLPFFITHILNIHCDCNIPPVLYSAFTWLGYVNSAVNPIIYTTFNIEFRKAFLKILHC

Compound | n (hill number) [1] | further results
CCN1CCC[C@@H]1CNC(=O)c1cc(S(N)(=O)=O)ccc1OC [(+)sulphride] | 1.0 ± 0.1 | 
CCN1CCC[C@H]1CNC(=O)c1cc(S(N)(=O)=O)ccc1OC [(-)sulphride] | 1.2 ± 0.2 | 
CCN1CCC[C@H]1CNC(=O)c1c(O)c(Cl)cc(Cl)c1OC [^3 H-raclopride] |  | maximum number of binding sites ([2]; COS-7 transfected with 16A-pCD-PS): 800±110 fmole/mg protein
CN1CCc2cccc3c2[C@H]1Cc1ccc(O)c(O)c1-3 [apomorphine] | 1.0 ± 0.1 | 
CN(C)CCCN1c2ccccc2Sc2ccc(Cl)cc21 [chlorpromazine] | 0.9 ± 0.1 | 
NCCc1ccc(O)c(O)c1 [dopamine] | 1.1 ± 0.1 | 
^3 H-SCH23396 |  | displacable binding to transfected COS-7 cells ([2]; concentrations up to 5 nM, displaced by chlorpromazine): did not show significant displacable binding
